# Laboratory results taken from patent publication US5843904A, “Inhibitors of interleukin-1βconverting enzyme” (Vertex Pharmaceuticals, Inc., priority 1995, dated 1998).
# Non-standard residues stand in square brackets, D forms with d. Residues, ends and D or L forms follow the SMILES beside them. No end group written: not given here. *: point of attachment. 4Abz = Nc1ccc(C(=O)O)cc1; Nphe = O=C(O)CNCc1ccccc1; Bz = O=C(c1ccccc1)*; CH2Cl = ClC*
# Biological target: T1, ICE (Homo sapiens, UniProt P29466)
# T1 construct: The active enzyme exists as a tetramer of two p20 and two p10 subunits
# T1 sequence (P29466 120-297 limits assumed): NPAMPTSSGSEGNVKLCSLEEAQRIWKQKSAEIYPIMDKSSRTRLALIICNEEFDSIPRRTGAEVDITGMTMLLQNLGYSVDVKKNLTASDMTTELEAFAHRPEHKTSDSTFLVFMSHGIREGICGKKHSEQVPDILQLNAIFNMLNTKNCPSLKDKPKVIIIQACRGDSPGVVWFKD
# T1 sequence (P29466 317-404 limits assumed): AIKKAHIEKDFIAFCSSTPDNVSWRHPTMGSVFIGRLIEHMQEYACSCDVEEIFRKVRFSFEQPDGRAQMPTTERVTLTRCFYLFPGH
# Assay: Inhibition of ICE: enzyme assay with UV-visible substrate (Succinyl-Tyr-Val-Ala-Asp-pNitroanilide)
# Format: biochemical
# Settings: UV-visible substrate assay of Example 1; pH 8.1, 37° C., 80 μM substrate
# From the text: The term "Ki " refers to a numerical measure of the effectiveness of a compound in inhibiting the activity of a target enzyme such as ICE. Lower values of Ki reflect higher effectiveness. The Ki value is a derived by fitting experimentally determined rate data to standard enzyme kinetic equations (see I. H. Segel, Enzyme Kinetics, Wiley-Interscience, 1975).
# 1. Enzyme assay with UV-visible substrate
# This assay is run using an Succinyl-Tyr-Val-Ala-Asp-pNitroanilide substrate. Synthesis of analogous substrates is described by L. A. Reiter (Int. J. Peptide Protein Res. 43, 87-96 (1994)). The assay mixture contains:
# 65 μl buffer (10 mM Tris, 1 mM DTT, 0.1% CHAPS @pH 8.1)
# 10 μl ICE (50 nM final concentration to give a rate of ~1 mOD/min)
# 5 μl DMSO/Inhibitor mixture 20 μl 400 μM Substrate (80 μM final concentration)
# 100 μl total reaction volume
# The visible ICE assay is run in a 96-well microtiter plate. Buffer, ICE and DMSO (if inhibitor is present) are added to the wells in the order listed. The components are left to incubate at room temperature for 15 minutes starting at the time that all components are present in all wells. The microtiter plate reader is set to incubate at 37° C. After the 15 minute incubation, substrate is added directly to the wells and the reaction is monitored by following the release of the chromophore (pNA) at 405-603 nm at 37° C. for 20 minutes. A linear fit of the data is performed and the rate is calculated in mOD/min. DMSO is only present during experiments involving inhibitors, buffer is used to make up the volume to 100 μl in the other experiments.
# The following Ki values were determined for compounds 706, 710, 719, 720, 725-727, 729, 731, 733, 743, 745, and 747-757 using the assay described in Example 1.
row,Molecule,Ki
1,"CC(C)[C@H](NC(=O)c1ccccc1)C(=O)N(CC(=O)N[C@H](C=O)CC(=O)O)Cc1ccccc1 [Compound 706, 3(S)-(2-((2(S)-Benzoylamino-3-methylbutyryl)benzylamino)acetylamino)-4-oxo-butyric Acid] (Bz-Val-[Nphe]-Asp-aldehyde)",69 nM
2,CC(C)[C@H](NC(=O)c1ccccc1)C(=O)N(CC(=O)N[C@@H](CC(=O)O)C(=O)c1nc2cc(Cl)cc(Cl)c2o1)Cc1cccnc1 [Compound 720],33 nM
3,"CC(=O)Nc1cccc(CN(CC(=O)N[C@H](C=O)CC(=O)O)C(=O)[C@@H](NC(=O)c2ccccc2)C(C)C)c1 [Compound 743, 3(S)-(2-((3-Acetylaminobenzyl)-(2(S)-benzoylamino-3-methylbutyryl)amino)acetylamino)-4-oxo-butyric Acid]",60 nM
4,CC(C)[C@H](NC(=O)c1ccccc1)C(=O)N(CC(=O)N[C@H](C=O)CC(=O)O)Cc1cccc(NS(C)(=O)=O)c1 [Compound 745],45 nM
5,"CC(C)[C@H](NC(=O)c1ccc(Cl)cc1)C(=O)N(CC(=O)N[C@H](C=O)CC(=O)O)Cc1ccccc1 [Compound 750, 3(5)-(2-((2(S)-(4-Chlorobenzoyl)amino-3-methylbutyryl)benzylamino)acetylamino)-4-oxo-butyric Acid]",90 nM
6,"CC(=O)Nc1ccc(C(=O)N[C@H](C(=O)N(CC(=O)N[C@H](C=O)CC(=O)O)Cc2ccccc2)C(C)C)cc1 [Compound 751, 3(S)-(2-((2(S)-(4-Acetylaminobenzoyl)amino-3-methylbutyryl)benzylamino)acetylamino)-4-oxo-butyric Acid] (Ac-[4Abz]V[Nphe]D-aldehyde)",71 nM
7,COc1cc(C(=O)C(=O)N[C@H](C(=O)N(CC(=O)N[C@H](C=O)CC(=O)O)Cc2ccccc2)C(C)C)cc(OC)c1OC [Compound 752],62 nM
8,"CC(C)[C@H](NC(=O)C(=O)c1ccccc1)C(=O)N(CC(=O)N[C@H](C=O)CC(=O)O)Cc1ccccc1 [Compound 753, 3(S)-(2(S)-(Benzyl(3-methyl-2-(2-oxo-2-phenylacetylamino)butyryl)amino)acetylamino)-4-oxo-butyric Acid]",53 nM
9,"CC(C)[C@H](NC(=O)c1ccccc1)C(=O)N(CC(=O)N[C@@H](C=O)CCC(=O)O)Cc1ccccc1 [Compound 754, 4(R)-(2(S)-((2-Benzoylamino-3-methylbutyryl)benzylamino)acetylamino)-5-oxopentanoic Acid] (Bz-Val-[Nphe]-[dE]-aldehyde)",2500 nM
10,"CC(C)[C@H](NC(=O)c1nccc2ccccc12)C(=O)N(CC(=O)N[C@@H](C=O)CCC(=O)O)Cc1ccccc1 [Compound 755, 4(R)-(2(S)-(Benzyl-(2-((isoquinoline-1-carbonyl)amino)-3-methylbutyryl)amino)acetylamino)-5-oxopentanoic Acid]",390 nM
11,"CC(C)[C@H](NC(=O)OCc1ccccc1)C(=O)N(CC(=O)N[C@H](C=O)CC(=O)O)C1Cc2ccccc2C1 [Compound 757, 3(S)-(2-((2(S)-(Benzyloxycarbonylamino-3-methylbutyryl)-indan-2-yl)amino)acetylamino)-4-oxobutyric Acid]",170 nM

# More lines, now with the values ahead:
row,Ki,Molecule
1,20 nM,CC(C)[C@H](NC(=O)c1ccccc1)C(=O)N(CC(=O)N[C@@H](CC(=O)O)C(=O)c1nc2cc(F)cc(Cl)c2o1)Cc1ccccc1 [Compound 719]
2,15 nM,CC(C)[C@H](NC(=O)c1ccccc1)C(=O)N(CC(=O)N[C@@H](CC(=O)O)C(=O)c1nc2cc(F)cc(F)c2o1)C1Cc2ccccc2C1 [Compound 726]
3,7.5 nM,CC(C)[C@H](NC(=O)c1ccc(Cl)cc1)C(=O)N(CC(=O)N[C@@H](CC(=O)O)C(=O)c1ncc(-c2c(Cl)cccc2Cl)o1)C1Cc2ccccc2C1 [Compound 733]
4,24 nM,"CC(C)(C)[C@H](NC(=O)c1nccc2ccccc12)C(=O)N(CC(=O)N[C@H](C=O)CC(=O)O)Cc1ccccc1 [Compound 747, 3(S)-(2(S)-(Benzyl-(2-((isoquinoline-1-carbonyl)amino)-3,3-dimethylbutyryl)amino)acetylamino)-4-oxo-butyric Acid]"
5,6 nM,"CC(C)[C@H](NC(=O)c1nccc2ccccc12)C(=O)N(CC(=O)N[C@H](C=O)CC(=O)O)Cc1ccccc1 [Compound 748, 3(S)-(2(S)-(Benzyl-(2-((isoquinoline-1-carbonyl)amino)-3-methylbutyryl)amino)acetylamino)-4-oxo-butyric Acid]"
6,7 nM,"CC(C)[C@H](NC(=O)c1cccc2ccccc12)C(=O)N(CC(=O)N[C@H](C=O)CC(=O)O)Cc1ccccc1 [Compound 749, 3(S)-(2(S)-(Benzyl-(2-((napthalene-1-carbonyl)amino)-3-methylbutyryl)amino)acetylamino)-4-oxo-butyric Acid]"

# Test system: primary cells or cell lines
# Assay: not given
# Settings: inhibition of one or more ICE homologs; cited from earlier work
row,Molecule,inhibition of apoptosis
1,Tyr-Val-Ala-Asp-chloromethylketone (YVAD-CH2Cl),inhibition of apoptosis
